Data taken from patent publication US7422793B2, “Non-toxic corrosion-protection rinses and seals based on rare earth elements” (University of Dayton, priority 2002, dated 2008).

Experiment: not given
Settings: pH 7; cited from earlier work

Row | Compound | Solubility in Water
1 | [O-][Cl+2]([O-])[O-].[O-][Cl+2]([O-])[O-].[Zn+2] [Zinc chlorate] | 8.6 × 10^0 mole/L
2 | F[Si-2](F)(F)(F)(F)F.[Zn+2] [Zinc hexafluorosilicate] | 1.11 × 10^0 mole/L
3 | [O-][Cl+3]([O-])([O-])[O-].[O-][Cl+3]([O-])([O-])[O-].[Zn+2] [Zinc perchlorate] | 1 × 10^0 mole/L
4 | Ammonium selenate | 6.0 × 10^0 mole/L
5 | Calcium vanadate | 0.5 mol/L
6 | Cesium bromate | 0.14 mol/L
7 | Cesium germanate | 0.5 mol/L
8 | Cesium tungstate | 5 × 10^0 mole/L
9 | Chloroperoxybenzoic acid | 10 mol/L
10 | Copper (II) hexafluorosilicate | 7.4 × 10^0 mole/L
11 | Iron (III) hexafluorosilicate | “soluble”
12 | Lithium bromate | 4.85 × 10^0 mole/L
13 | Lithium germanate | 0.063 mol/L
14 | Magnesium hexaniobate | 0.088 mol/L
15 | Magnesium tungstate hydrate | 0.72 mol/L
16 | Magnesium vanadate | 1 × 10^0 mole/L
17 | Manganese (II) Fluorosilicate | 4.59 × 10^0 mole/L
18 | Potassium arsenate | 0.74 mol/L
19 | Potassium fluoroaluminate | 0.0061 mol/L
20 | Potassium germanate | 1 × 10^0 mole/L
21 | Potassium niobate | 0.05 mol/L
22 | Potassium superoxide | 1 × 10^0 mole/L

Row | Compound | Solubility in Water
23 | Potassium tungstate | 142 mol/L
24 | Potassium vanadate | 1 × 10^0 mole/L
25 | Rubidium bromate | 0.14 mol/L
26 | Rubidium germanate | 0.5 mol/L
27 | Rubidium heptafluoroniobate | 0.1 mol/L
28 | Rubidium heptafluorotantalate | 0.1 mol/L
29 | Rubidium hexafluorohafnate | 0.19 mol/L
30 | Rubidium hexafluorostannate | 0.062 mol/L
31 | Rubidium hexafluorotitanate | 0.025 mol/L
32 | Rubidium hexafluorozirconate | 0.0848 mol/L
33 | Rubidium periodate | 0.024 mol/L
34 | Rubidium stannate | 5 × 10^0 mole/L
35 | Rubidium tellurate | 0.01 mol/L
36 | Rubidium tungstate | 50 mol/L
37 | Silver (I) fluorogallate | 1 × 10^0 mole/L
38 | Sodium perborate | 0.17 mol/L
39 | Sodium tungstate | 249 mol/L
40 | Strontium bromate | 0.91 mol/L
41 | Strontium nitrite | 3.8 × 10^0 mole/L
42 | Tin (IV) fluoride | 1 × 10^0 mole/L
43 | Vanadium pentoxide | 0.044 mol/L
44 | Zinc nitrite | 1 × 10^0 mole/L

Experiment: pH change on placing the compound into deionized water of pH 7
Format: physicochemical
Settings: simple laboratory experiment
Source text: A simple laboratory experiment confirms this effect. […] However, if icosahedral Ce(NO3)6^2− (note that this ion contains no hydroxide) is placed into deionized water of pH 7, a quite remarkable pH drop to −1 can be observed. The released tetravalent cerium ions will scavenge virtually all of the available OH^− ions in solution (possibly even degrading H2O itself to obtain […]), resulting in this dramatic pH drop.

Row | Compound | pH after placing into deionized water of pH 7
45 | O=[N+]([O-])O.O=[N+]([O-])O.O=[N+]([O-])O.O=[N+]([O-])O.O=[N+]([O-])O.O=[N+]([O-])O.[Ce] [Ce(NO3)6^2−, hexanitratocerate (IV)] | −1
46 | [Ce+4].[OH-].[OH-].[OH-].[OH-] [Ce(OH)4, ceric hydroxide, reference compound] | only a minor pH change

Experiment: not given
Settings: in acid solution; couple to the trivalent ion; cited from earlier work

Row | Compound | oxidation-reduction potential
47 | [Ce+4] [Ce^+4, tetravalent cerium ion] | +1.72 V
48 | hexavalent chromium [Cr^+6, reference compound] | +1.36 V

Same assay, conditions: in acidic solution; Nugent et al. 1971; cited from earlier work

Row | Compound | calculated redox potential
49 | [Pr+4] [Pr^+4, tetravalent praseodymium ion] | +3.2 V
50 | [Tb+4] [Tb^+4, tetravalent terbium ion] | +3.2 V
